According to patent US8232299B2, “Phthalimide derivatives that influence cellular vesicular systems, pharmaceutical compositions, and use thereof” (Avidin Kft., priority 2007, dated 2012):

Legend:
[1] = test system: MCF7 (Human breast adenocarcinoma); experiment: cytotoxic effect on breast carcinoma cell line, MTS test, 24 hours; assay type: cell-based; settings: 24 hours incubation
Procedure: (§1) In these experiments HepG2 (human hepatocellular carcinoma) and MCF7 (Human breast adenocarcinoma) cells were used. They were cultured in the following media: For HepG2 Dulbecco's Modified Eagle Medium (D-MEM) (high glucose) (Gibco BRL, Carlsbad, Calif., USA), penicillin (50 IU/ml)-streptomycin ([…]), 10% fetal bovine serum; for MCF7 (Human breast adenocarcinoma) 1:1 mixture of Dulbecco's Modified Eagle Medium (D-MEM) (high glucose) (Gibco BRL, Carlsbad, Calif., USA) and Nutrient Mixture F-12 Ham (Sigma, St. Louis, Mo., USA), penicillin (50 IU/ml)-streptomycin ([…]), 10% fetal bovine serum. Experiments were performed as described in Example 9. with the difference that the incubation time was 24 hours in this case. After the incubation period MTS test (3-(4,5-dimethylthiazol-2-yl)-5-(3-carboxymethoxyphenyl)-2-(4-sulfophenyl)-2H-tetrazolium) (Promega, Madison, Wis., USA) was performed as described above.

[2] = test system: RVH human melanoma cell line; experiment: cytotoxic effect on melanoma cell line, MTS assay, 48 hours; assay type: cell-based; settings: 48 hours treatment, FIG. 4; for effect on RVH melanoma cells: even at 100 μM concentration
Procedure: RVH human melanoma cell line was cultured in Minimum Essential Medium Eagle (Sigma, St. Louis, Mo., USA), Na-piruvate, Glutamine, Non-essential amino acids, penicillin (50 IU/ml)-streptomycin ([…]), 10% fetal bovine serum at 37° C., in 5% CO2. Cells were trypsinized with trypsin/EDTA (Sigma-Aldrich, St. Louis, Mo.) on every second day and were passed into 60 or 100 mm plates. When the culture reached the required cell number (approx. 10^6) for the planned experiment 50.00 cell/well was plated into 24 well plates (Costar® 24 Well TC-Treated Microplates) and left overnight to adhere to the bottom of the well. Addition of the substance was performed the following way: next day the culture media was drawn from the adhered cells and media comprising compounds of the present invention in appropriate concentration and well mixed therein was pipetted (2 ml/well) onto the cells. The substance to be examined was diluted in 100% DMSO, this way an amount of DMSO corresponding to the highest concentration of the substance in a given assay were measured in the media of the control wells. After 48 hours of treatment live cells were detected by CellTiter® 96 Aqueous Non-radioactive Cell Proliferation Assay (Promega, Madison, Wis., USA) to determine the number of live cells in the treated and in the control samples.
MTS is converted to formazane in the living cells, which product is dissolved in the media, and its quantity/absorbance can be measured at 490 nm. […] Then, for the determination of the ratio of live cells 20 μl MTS and 1 μl PMS are added to 100 μl media. The enzyme reaction occurs at incubation at 37° C., 5% CO2 for 1 to 4 hours. Formazane produced by the cells is read on ELISA plate reader, from which the number of living cells can be obtained indirectly. Since the inventors performed the experiments in 24 well plates with 50.000 cell/well, the protocol had to be modified. After treatment of the cells for an appropriate time (type of compound, different concentrations), the incubation media (2 ml) containing the examined substance was removed, then 400 μl media containing reagents in the same concentration as given above (333.3 μl media, 66.6 μl MTS, and 3.3 μl PMS per well) was pipetted to the cells. To be able to use ELISA plate reader (Multiskan R C, Thermo Labsystems, Franklin, Mass., USA) 400 μl sample from each single well of the 24 well plate was pipetted into four wells of a 96 well plate (Micromethod plates 96 wells flat form) in 100 μl aliquots. That also helped to eliminate possible errors due to inconsistent pipetting. On each 24 well plate 4 wells were control samples. From these 3 times 100 μl was pipetted onto the 96 well plates, so, altogether 12 controls were provided on each 96 well plate. The remaining 4 wells were for background measurements with 100 μl media containing MTS and PMS as described above.

[3] = test system: RAW.264.7 matured mice macrophages; experiment: MTS test of vitality / metabolic activity of the macrophages; assay type: cell-based
Procedure: In our experiments we investigated the early TNFα secretion of RAW.264.7 matured mice macrophages. This cell line stores large amount of preformed TNFα. […] Culture supernatant was collected and TNFα content was determined by R&D Duoset ELISA kit (detection limit<62.5 pg/ml). […] So the reduced TNFα level was due to inhibition of the release of preformed TNFα and not due to dying of the cells.
Effects of compound 3a and compound 3b on TNFα secretion and on NF-kappaB activation could have been based on cytotoxicity as well. To exclude that, we determined the metabolic activity of the cells, which is proportional to the cell number, by MTS test 8 hours after the treatment.

[4] = test system: HepG2 (human hepatocellular carcinoma); experiment: cytotoxic effect on hepatocellular carcinoma cell line, MTS test, 24 hours; assay type: cell-based; settings: 24 hours incubation
Procedure: as §1

[5] = test system: Mycobacterium avis; experiment: inhibition of Mycobacterium avis in THP-1 macrophage culture; assay type: cell-based; settings: 36 mg/l, THP-1 human macrophage cells; FIG. 11
Procedure: In this experiment the effects of compound 3a were analyzed: the inhibition of Mycobacterium avis in macrophage culture was investigated. Human macrophage cells (THP-1) were infected by Mycobacterium avis under in vitro conditions, subsequently treated (compound 3a: 36 mg/l) and untreated cells were harvested after different periods of time and the number of the living Mycobacterium avis bacteria were determined.

[6] = test system: TNFα; experiment: late phase (transcriptionally induced) TNFα secretion of macrophages, ELISA; assay type: cell-based, mice; settings: preformed TNFα washed away after 4 hours, TNFα of next 4 hours; FIG. 3
Procedure: For the detection of late phase TNFα secretion the preformed TNFα, released after LPS induction of the macrophages, was washed away after 4 hours, and the amount of TNFα produced during the next 4 hours was determined by ELISA test. […] Results are depicted in FIG. 3.

[7] = test system: Rab GTPase proteins; experiment: affinity chromatography of MCF-7 protein fraction with LC-MS/MS; assay type: binding, human; settings: compound linked to Sepharose beads, 2 M NaCl eluate
Procedure: By using affinity chromatography we investigated which are the proteins that bind compound 5b of the invention. Compound 5b was linked to cyanobromide activated Sepharose (Amersham-Pharmacia, Sepharose 4B) beads in 6:4 DMF:water mixture for 16 hours at room temperature. 1 ml of the beads was washed with 50 ml 6:4 DMF:water mixture, and then with 50 ml 70% ethanol, then with PBS (0.01 M phosphate buffer, 0.0027 M KCl, 0.137 M NaCl, pH: 7.4). After washing the column 5 ml protein fraction of human MCF-7 breast carcinoma cells (10 million cells homogenized with Complete, Protease Inhibitor Cocktail Tablets, Roche Diagnostics GmbH) were applied onto the column. The column was washed with 20 ml 0.2 M NaCl—PBS solution, then with 15 ml 0.5 M NaCl—PBS solution and with 15 ml 0.8 M NaCl—PBS solution, then it was eluted by 2 ml 2 M NaCl—PBS. The eluate was analyzed by mass spectrometry (LC-MS/MS) to determine the proteins binding to compound 5b.
Mass spectrometry analysis was performed according to the protocol published at http://donatello.ucsf.edu/ingel.html at the time of drafting the patent application.
For the LC-MS/MS analysis 5 μl sample was injected. For the LC precolumn trap was applied: 5 min 20 μl 0.1% trifluoroacetic acid/water, then gradient elution for MS/MS analysis. Columns: Zorbax 300SB-C18, 5 μm, 5×0.3 mm; Zorbax 300SB-C18, 3.5 μm, 150×0.075 mm. […]

[8] = test system: human leukemia cells (K562); experiment: leukemia survival model, K562 cells i.v.; assay type: in vivo, CB17/scid mice; settings: 100 mg/kg p.o., once a day five days per week for 3 weeks from day 4; FIG. 10
Procedure: 2×10^6 human leukemia cells (K562) from in vitro cultures were injected intravenously (i.v.) into partially narcotized (diethylether narcosis) adult male CB17/scid mice, born with immunodeficiency. After tumor cell inoculation animals were randomly assigned into two groups and their ears were marked. From the 4th day after the tumor cell inoculation mice were treated once a day five days per week for 3 weeks with compound 9a (100 mg/kg), per os (p.o.) by gavage. Control animals were treated with appropriate dilution of the carrier (DMSO) similarly to the treated group with similar frequency. Body weight changes were monitored once a week for each animal according to the ear marks. Evaluation of the effect of the compound was based on the survival of the animals. Results are shown on FIG. 10.

[9] = in the concentration range tested
[10] = already at 20 and 50 μM concentrations

Row | Compound | inhibition of MCF7 cells (cytotoxic effect) [1] | inhibition of RVH melanoma cells (cytotoxic effect) [2] | inhibition of HepG2 cells (cytotoxic effect) [4] | effect on MCF7 cells [1, 10] | further results
1 | CCNc1c(F)c(F)c(F)c2c1C(=O)N(c1c(C(C)C)cccc1C(C)C)C2=O [Compound 3a, 2-(2,6-diisopropylphenyl)-4-(ethylamino)-5,6,7-trifluoroisoindole-1,3-dione] |  |  |  |  | effect on MCF7 cells [1, 9]: weak effect; effect on RVH melanoma cells [2]: weak effect; vitality of the cells (MTS test) ([3]; 3 hours after the stimulation with LPS): no cell death was detected; metabolic activity of the cells (MTS test) ([3]; 8 hours after the treatment): not found to be toxic; effect on HepG2 cells [4, 9]: weak effect; number of divided (living) bacteria versus untreated group [5]: significantly smaller; late TNFα secretion of macrophages [6]: inhibited late TNFα secretion of macrophages in a concentration dependent way
2 | CC(C)c1cccc(C(C)C)c1N1C(=O)c2c(F)c(F)c(F)c(NCc3cccnc3)c2C1=O [Compound 4a] | strongest inhibition | strongest inhibition | strongest inhibition |  | 
3 | CC(C)c1cccc(C(C)C)c1N1C(=O)c2c(F)c(F)c(NCc3cccnc3)c(F)c2C1=O [Compound 4b] |  | strongest inhibition |  | strong effect | effect on HepG2 cells [4, 10]: strong effect
4 | CC(C)c1cccc(C(C)C)c1N1C(=O)c2c(F)c(F)c(F)c(NCCN)c2C1=O [Compound 5a, 2-(2,6-diisopropylphenyl)-4-(2-amino-ethylamino)-5,6,7-trifluoroisoindole-1,3-dione] |  | strongest inhibition |  | strong effect | effect on HepG2 cells [4, 9]: weak effect
5 | CC(C)c1cccc(C(C)C)c1N1C(=O)c2c(F)c(F)c(NCCN)c(F)c2C1=O [Compound 5b, 2-(2,6-diisopropylphenyl)-5-(2-amino-ethylamino)-4,6,7-trifluoroisoindole-1,3-dione] |  |  |  |  | proteins binding to the compound [7]: interactions with Rab GTPase proteins were identified; effect on RVH melanoma cells [2]: weak effect
6 | CC(C)c1cccc(C(C)C)c1N1C(=O)c2c(F)c(F)c(F)c(NCC(F)(F)F)c2C1=O [Compound 6a, 2-(2,6-diisopropylphenyl)-4,5,6-trifluoro-7-(2,2,2-trifluoroethylamino)isoindole-1,3-dione] | strongest inhibition | strongest inhibition | strongest inhibition |  | 
7 | CC(C)c1cccc(C(C)C)c1N1C(=O)c2c(F)c(F)c(F)c(NCCCN3CCOCC3)c2C1=O [Compound 7a, 2-(2,6-diisopropylphenyl)-4-(3-morpholino-4-yl-propylamino)-5,6,7-trifluoroisoindole-1,3-dione] | strongest inhibition |  | strongest inhibition |  | 
8 | CC(C)c1cccc(C(C)C)c1N1C(=O)c2c(F)c(F)c(NCCCN3CCOCC3)c(F)c2C1=O [Compound 7b, 2-(2,6-diisopropylphenyl)-5-(3-morpholino-4-yl-propylamino)-4,6,7-trifluoroisoindole-1,3-dione] |  | strongest inhibition | strongest inhibition | strong effect | effect on HepG2 cells [4, 10]: strong effect
9 | CC(C)c1cccc(C(C)C)c1N1C(=O)c2c(F)c(F)c(F)c(NC3CCCC3)c2C1=O [Compound 9a, 2-(2,6-diisopropylphenyl)-4-(cyclopentylamino)-5,6,7-trifluoroisoindoline-1,3-dione] |  |  |  |  | survival of the animals [8]: significant increase of the survival
